Measured values taken from patent US12071436B2, “Anti-parasitic compounds and uses thereof” (Memorial Sloan-Kettering Cancer Center, priority 2016, dated 2024).
Where two headings read alike, the source gives them in different places.

How the values were obtained:
[1] = Plasma pharmacokinetics in female BALB/c mice (ip and po); type: in vivo, mouse; details: 50 mg/kg; for bioavailability / AUC / Cmax / half-life: female, BALB/c, mice; for bioavailability / AUC / Cmax / half-life / Tmax: mouse, plasma; for bioavailability: oral, read-out: Relative Bioavailability, Frel (po/ip); for Tmax / plasma concentrations quantifiable till: female BALB/c mice
Method: To evaluate the plasma pharmacokinetics of selected compounds, a group of eighteen female mice were administered divided into two groups; Group 1 (intraperitoneal (i.p.)) and Group 2 (oral administration (p.o.)) with compound 21 or compound 37 solution formulation at a dose of 50 mg/kg by both the routes in 5% NMP, 5% Solutol and 90% Normal saline. Blood samples (approximately […]) were collected from retro orbital plexus of each mouse under light isoflurane anesthesia such that the samples were obtained at 0.083, 0.25, 0.5, 1, 2, 4, 8, 12 and 24 hours (i.p.); and pre-dose, 0.25, 0.5, 1, 2, 4, 8, 12 and 24 hour (p.o.). The blood samples were collected from a set of three mice at each time point in labeled micro centrifuge tube containing K2EDTA as anticoagulant. Plasma samples were separated by centrifugation at 4000 rpm for 10 min and stored below −70° C. until bioanalysis. After collection of blood sample, animals were humanely euthanized by carbon dioxide asphyxiation to collect liver and heart from Group 1 and Group 2 at 1, 8 and 24 hours. The collected tissues were rinsed in PBS and were homogenized with cold phosphate buffer saline (pH 7.4) of nine times the weight of liver and two times the weight of heart tissue and stored below −70° C. until bio-analysis. Total volume was ten and three times the tissue weights of liver and heart, respectively. All samples were processed for analysis by protein precipitation using acetonitrile and analyzed with fit-for-purpose LC-MS/MS method (LLOQ: 1.01 ng/mL for plasma; 20.20 ng/g for liver and 6.06 ng/g for heart tissue). […] Exemplary results for compounds 21 (2015-FoleyC-021) and 37 (2015-FoleyC-037) are shown above in Table 2.

[2] = system: Trypanosoma cruzi parasites; assay: Trypanosoma cruzi in vitro IC50 (structure-activity analyses); type: cell-based; details: infection with Trypanosoma cruzi parasites for 72 hours and treatment with the compound for 72 hours
Method: Select compounds described herein were evaluated for structure-activity analyses in vitro.

HepG2 = assay: Cytotoxicity screening in HepG2 (CellTiter Glo, fluorescence microscopy); type: cell-based; details: Homo sapiens, 48 hours
Method: (§1) To evaluate the cytotoxicity of selected compounds, cell viability assays (CellTiter Glo) were conducted. Each compound (compound 21 or compound 37) was plated in triplicate starting at their respective stock concentration. They were serially diluted column-wise for ten 3× dilutions using DMSO as the diluent. Staurosporine was used as positive control for DRC (dose response curve), and was plated starting at 1.25 mM. This plate was used as a source plate to make the assay plates by transferring 0.1 μl into 25 μl assay volume to reach the right working concentration for each compound. HepG2 and MRC5 were plated at a density of 1500 cells/25 μl in well in the assay plate and allowed to settle overnight. 0.1 μL of compounds was then transferred from the source plate, into the cell assay plates. The cells were left to incubate with the compounds for 48 hours, after which, 25 μL of Promega Cell Titer-Glo was added to each well, and allowed to incubate at room temperature with shaking for 20 minutes. RLU's (Relative Light Units) for each well were then recorded on a BioTek Synergy NEO. Fluorescence microscopy was also used to evaluate the cytotoxicity of selected compounds. Cells were plated at a density of 1500 cells/25 μl in well in a 384 wells plate the day before incubation with the drugs. The following day, 0.1 μl of the source plate are added to the assay plate. Then, 25 μl of a fluorophores mixture containing Hoechst 33342, Syto17 diluted in Eagle's Minimum Essential Medium (EMEM) was added to each well. Plates are read after 48 hours of incubation in the ImageXpress instrument (Molecular Devices) using the appropriate filters.

[3] = Parallel artificial membrane permeability assay (PAMPA), commercial kit; type: in vitro ADME; details: PBS, room temperature, read-out: Parallel artificial membrane permeability assay (PAMPA) Permeability (log Pe [cm/s]) (converted)
Method: To evaluate the Parallel Artificial Membrane Permeability Assay (PAMPA) of selected compounds, an assessment of permeability was done using a commercial PAMPA kit. Selected compounds were evaluated over a range of concentrations by 300 μl of PBS containing the compound to the bottom donor plate. Selected compounds were from DMSO stocks and the final DMSO concentration in the donor wells was one percent. 200 μl of blank PBS was added to the top receiver plate. The plates were allowed to incubate at room temperature. After 5 hours, aliquots were taken from the donor and receiver plates and the concentration of drug was determined. Compound permeability was calculated using the equation [formula] where Pe is expressed in units of cm/s, CA(t) is drug concentration in the acceptor at time t, VD is donor well volume, VA is acceptor well volume, A is the area of the filter (0.3 cm^2), t is time in seconds, and Ceq=[CD(t)*VD+CA(t)*VA]/(VD+VA).

[4] = Hepatic microsomal stability, 1 mg/mL hepatic microsomes; type: in vitro ADME; details: C57BL/6, mouse, liver microsomes, pH 7.4, 1 μM compound, NADPH, read-out: microsomal stability (t1/2, mouse): 1 mg/mL hepatic microsomes
Method: To evaluate the hepatic microsomal stability of selected compounds, 1 μM of each selected compound was incubated with 1 mg/mL hepatic microsomes in 100 mM KPi, pH 7.4. The microsomes were obtained from C57BL/6 mice. The reaction was initiated by adding NADPH (1 mM final concentration). Aliquots were removed at 0, 5, 10, 20, 40, and 60 minutes and added to acetonitrile (5× v:v) to stop the reaction and precipitate the protein. NADPH dependence of the reaction is evaluated with —NADPH samples. At the end of the assay, the samples were centrifuged through a Millipore Multiscreen Solvinter 0.45 micron low binding PTFE hydrophilic filter plate and analyzed by LC-MS/MS. Data was log transformed and represented as half-life.

[5] = Cytotoxicity screening in MRC5 (CellTiter Glo, fluorescence microscopy); type: cell-based; details: human, MRC5 cells
Method: as §1

Cytotoxicity (Table 1) = type: cell-based
[6] = ip, read-out: PK (ip, 50 mg/kg) Area under the curve (AUC)
[7] = ip, read-out: PK (ip, 50 mg/kg) Cmax
[8] = ip, read-out: PK (ip, 50 mg/kg) t1/2 (converted)
[9] = po, read-out: PK (po, 50 mg/kg) AUC
[10] = po, read-out: PK (po, 50 mg/kg) Cmax
[11] = po, read-out: PK (po, 50 mg/kg) t1/2 (converted)
[12] = ip, single intraperitoneal dose
[13] = read-out: HepG2 IC50, Cell Count
[14] = read-out: HepG2 IC50, Cellular ATP
[15] = read-out: HepG2 IC50, Membrane Integrity
[16] = read-out: MRC5 IC50, Cell Count
[17] = read-out: MRC5 IC50, Cellular ATP
[18] = read-out: MRC5 IC50, Membrane Integrity

Compound CN(C)CC#Cc1cccc(-c2nc(C(=O)NCc3ccc4c(c3)OCO4)cc3c2[C@@H](CCO)N([S@+]([O-])C(C)(C)C)C3)c1 [compound 21, (R)-N-(Benzo[d][1,3]dioxol-5-ylmethyl)-2-((R)-tert-butylsulfinyl)-4-(3-(3-(dimethyl-amino)prop-1-yn-1-yl)phenyl)-3-(2-hydroxyethyl)-2,3-dihydro-1H-pyrrolo[3,4-c]pyridine-6-carboxamide] has a bioavailability [1] of 48%, an AUC [1, 6] of 50.1 µM·h and a Cmax [1, 7] of 19.8 µM. For the same compound, the half-life [1, 8] was 2.8 h, the AUC [1, 9] was 24.3 µM·h and the Cmax [1, 10] was 11.8 µM. The half-life [1, 11] was 3.5 h, the Tmax [1, 12] was 0.25 h and the Tmax ([1]; single oral dose) was 1 h. The “plasma concentrations quantifiable till” value ([1]; single intraperitoneal dose) was 24 h, the “plasma concentrations quantifiable till” value ([1]; single oral dose) was 24 h and the IC50 [2] was 0.054 µM. For the same compound, the IC50 (HepG2; [13]) was 51.3 µM, the IC50 (HepG2; [14]) was 52.5 µM and the IC50 (HepG2; [15]) was 62.1 µM. It also gave a Papp at 5 h [3] of 0.055 ×10⁻⁶ cm/s, a half-life at 1 μM [4] of 3.9 min and an IC50 at 48 h [5, 16] of 63.7 µM. For the same compound, the IC50 at 48 h [5, 17] was 44.7 µM, the IC50 at 48 h [5, 18] was 24.4 µM and the Cytotoxicity (Cytotoxicity (Table 1)) was >10 µM.
In the case of CN(C)CC#Cc1cccc(-c2nc(C(=O)N[C@@H]3CCN(Cc4ccccc4)C3)cc3c2[C@@H](CCO)N([S@+]([O-])C(C)(C)C)C3)c1 [compound 37, (R)-N-((R)-1-Benzylpyrrolidin-3-yl)-2-((R)-tert-butylsulfinyl)-4-(3-(3-(dimethylamino)prop-1-yn-1-yl)phenyl)-3-(2-hydroxyethyl)-2,3-dihydro-1H-pyrrolo[3,4-c]pyridine-6-carboxamide], the bioavailability [1] is reported as 47%, the AUC [1, 6] is reported as 11.1 µM·h and the Cmax [1, 7] is reported as 6.8 µM. It also gave a half-life [1, 8] of 6.3 h, an AUC [1, 9] of 5.2 µM·h and a Cmax [1, 10] of 1.7 µM. The half-life [1, 11] was 4.3 h, the Tmax [1, 12] was 0.25 h and the Tmax ([1]; single oral dose) was 1 h. The “plasma concentrations quantifiable till” value ([1]; single intraperitoneal dose) was 24 h, the “plasma concentrations quantifiable till” value ([1]; single oral dose) was 24 h and the IC50 [2] was 0.048 µM. For the same compound, the IC50 (HepG2; [13]) was 56.2 µM, the IC50 (HepG2; [14]) was 54.2 µM and the IC50 (HepG2; [15]) was 90.6 µM. It also gave a Papp at 5 h [3] of 5.75 ×10⁻⁶ cm/s, a half-life at 1 μM [4] of 1.3 min and an IC50 at 48 h [5, 16] of 64.2 µM. For the same compound, the IC50 at 48 h [5, 17] was 54.1 µM, the IC50 at 48 h [5, 18] was 13.4 µM and the Cytotoxicity (Cytotoxicity (Table 1)) was >10 µM.
